For series [1], the system named is ANGPTL3 gene. Briefly: Example 10: serum total cholesterol in mice. The note with it: 0.5 mg/kg single SC injection day 1, female C57bl/6 mice, n=3, ratio to D5W control. The class given is in vivo. Here is the method:
To assess the in vivo activity of further ANGPTL3 RNAi agents that are designed to target position 304 on the ANGPTL3 gene, six- to eight-week-old female C57bl/6 mice were used. Pre-dose serum samples were taken at day −1 after a four hour fast. At day 1, each mouse was given a single subcutaneous administration of 200 μl containing 0.5 mg/kg (mpk) of an ANGPTL3 RNAi agent in D5W (dextrose in 5% water), or control (D5W) with no RNAi agent, according to the dosing groups recited in Table 47.
Each of the RNAi agents included a modified sequence and an N-acetyl-galactosamine-containing targeting ligand conjugated to the 5′ terminal end of the sense strand. (See Tables 3, 4, and 5 for modified sequences and targeting ligand structures). As noted above, each of the ANGPTL3 RNAi agents dosed in this study included nucleotide sequences designed to target the ANGPTL3 gene at position 304. The injections were performed between the skin and muscle (i.e. subcutaneous injections) into the loose skin over the neck and shoulder area. Three (3) mice in each group were tested (n=3). Serum was collected on days 8, 15, 22, 29, and for some groups on day 36 (i.e., Groups 1, 2, and 9-13 only). Mice were fasted for four hours prior to each collection. ANGPTL3 protein levels in serum were measured by ELISA assay (R&D Systems), according to the manufacturer's recommendations. Triglycerides, total cholesterol, high-density lipoprotein (HDL), and low-density lipoprotein (LDL) in serum were measured on a Cobas® Integra 400 (Roche Diagnostics), according to the manufacturer's recommendations.
The ANGPTL3 protein levels, triglyceride levels, total cholesterol levels, HDL levels, and LDL levels for each animal were normalized. For normalization, the level of ANGPTL3 protein, triglyceride, HDL, and total cholesterol, respectively, for each animal at a time point, was divided by the pre-treatment level of expression in that animal (in this case at day −1) to determine the ratio of expression “normalized to pre-treatment.” Expression at a specific time point was then normalized to the D5W control group by dividing the “normalized to pre-treatment” ratio for an individual animal by the mean “normalized to pretreatment” ratio of all mice in the D5W control group.

The subject of series [2] is ANGPTL3 gene. Briefly: Example 12: serum triglycerides in LDLR knockout mice. The class given is in vivo, LDLR KO mice. From the text: To evaluate the effect of RNAi agent administration in a disease model, mice having a genetic mutation for the LDL receptor (referred to herein as LDLR KO mice) were commercially obtained (The Jackson Laboratory). The LDLR KO mice are homozygous for the Ldlr^tm1Her mutation, and have elevated serum cholesterol levels, particularly when placed on a high fat diet. For three weeks prior to the onset of the study, thirty-nine (39) LDLR KO mice were placed on a high fat diet (Teklad Custom Diets TD.88137). An additional eight (8) LDLR KO mice were placed on a normal chow diet over the same three-week period. Pre-dose serum samples were taken on day −15 and day −1 after a four hour fast. At day 1, each mouse was given a single subcutaneous administration of 200 μl/30 g animal body weight containing the respective mg/kg dose of an ANGPTL3 RNAi agent in D5W (dextrose in 5% water), control (D5W) with no RNAi agent, or a control RNAi agent that included a nucleotide sequence designed to target the Hepatitis B Virus (HBV) genome. A second injection of the same formulation was administered to the animals on day 29. The dosing regimen for the study is recited in the following Table 60:
Each mouse remained on its respective diet through the duration of study. The RNAi agent tested (AD05488) included a modified sequence and an N-acetyl-galactosamine-containing targeting ligand conjugated to the 5′ terminal end of the sense strand. (See Tables 3, […] modified sequences and targeting ligand structures). The injections were performed between the skin and muscle (i.e. subcutaneous injections) into the loose skin over the neck and shoulder area. Serum was collected on days 8, 15, 22, 29 (pre-second dose), 36, 43, 50, and 57. LDLR KO mice were fasted for four hours prior to each collection. On day 15, four (4) LDLR KO mice from Groups 1, 2, and 3 (i.e., the groups being administered the high fat “Western” diet) were sacrificed after serum collection, and on day 29, an additional four (4) LDLR KO mice from Groups 1, 2, and 3 were sacrificed after serum collection, for the purpose of performing mRNA assessments.
ANGPTL3 protein levels in serum were measured by ELISA assay (R&D Systems), according to the manufacturer's recommendations. Triglycerides, total cholesterol, high-density lipoprotein (HDL), and low-density lipoprotein (LDL) in serum were measured on a Cobas® Integra 400 (Roche Diagnostics), according to the manufacturer's recommendations.
The ANGPTL3 protein levels, triglyceride levels, total cholesterol levels, HDL levels, and LDL levels for each animal were normalized. For normalization, respective levels of ANGPTL3 protein, TG, total cholesterol, HDL, or LDL for each animal at a time point was divided by the average pre-treatment level of expression in that animal (in this case the average of day −15 and day −1) to determine the ratio of expression “normalized to pre-treatment.”
Expression at a specific time point was then normalized to the D5W control group that was administered the same diet (i.e., either the high fat “Western” diet or the normal chow-fed diet) by dividing the “normalized to pre-treatment” ratio for an individual animal by the mean “normalized to pretreatment” ratio of all mice in the D5W control group on the respective same diet, resulting in expression for each time point normalized to that in the control group.

In the oligonucleotide strings, read from the 5' end, every base follows the letter of its sugar. An asterisk marks phosphorothioate; unmarked linkages are phosphodiester. Other units and linkages are bracketed, terminal groups are in braces. A string of capitals states the bases alone. {NAG37} = tridentate N-acetyl-galactosamine targeting ligand, structure (NAG37)s; [invAb] = inverted abasic unit; m = 2'-O-methyl; f = 2'-fluoro

Consider “AD05488: RNAi agent duplex: antisense AM07235-AS, sense AM07234-SS (antisense mU*fA*mC*fUmGfAmUfCmAfAmAfUmAfUmGfUmUfGmAfG*mC; sense {NAG37}*[invAb]*mGmCmUmCmAmAmCmAfUfAfUmUmUmGmAmUmCmAmGmUmA*[invAb])”, for which the “Average Total Cholesterol Normalized to Pre-Treatment and Control” value turned out to be 0.659 in the series with ANGPTL3 gene [1] (Day 8); 0.808 in the series on ANGPTL3 gene [1] (Day 15); 0.763 with ANGPTL3 gene [1] (Day 22); 0.743 in the series on ANGPTL3 gene [1] (Day 29); 0.824 in the series on ANGPTL3 gene [1] (Day 36). Also, in the series with ANGPTL3 gene [2] (3.0 mg/kg on days 1 and 29 (Groups 2 and 5), LDLR KO mice), the “reductions in TG levels” value was “significant reductions”. The “Avg TG (Triglycerides) Normalized to Pre-Treatment and Control (Diet Matched)” value (“Avg TG (Triglycerides) Normalized” for short) in the series with ANGPTL3 gene [2] (3.0 mg/kg sc day 1, High Fat Diet, Day 8) is 0.121; in the series on ANGPTL3 gene [2] (3.0 mg/kg sc day 1, High Fat Diet, Day 15), 0.086; with ANGPTL3 gene [2] (3.0 mg/kg sc day 1, High Fat Diet, Day 22), 0.094; in the series with ANGPTL3 gene [2] (3.0 mg/kg sc day 1, High Fat Diet, Day 29 (pre-second dose)), 0.096; in the series with ANGPTL3 gene [2] (3.0 mg/kg sc day 1, Normal Diet, Day 8) it was 0.472; in the series on ANGPTL3 gene [2] (3.0 mg/kg sc day 1, Normal Diet, Day 15), 0.503. Besides, the “Avg TG (Triglycerides) Normalized” value with ANGPTL3 gene [2] (3.0 mg/kg sc day 1, Normal Diet, Day 22) amounted to 0.473; with ANGPTL3 gene [2] (3.0 mg/kg sc day 1, Normal Diet, Day 29 (pre-second dose)), 0.480; with ANGPTL3 gene [2] (3.0 mg/kg sc days 1 and 29, High Fat Diet, Day 36), 0.104; in the series on ANGPTL3 gene [2] (3.0 mg/kg sc days 1 and 29, High Fat Diet, Day 43), 0.084; in the series on ANGPTL3 gene [2] (3.0 mg/kg sc days 1 and 29, High Fat Diet, Day 50) it was 0.091; with ANGPTL3 gene [2] (3.0 mg/kg sc days 1 and 29, High Fat Diet, Day 57), 0.079. Moreover, the “Avg TG (Triglycerides) Normalized” value in the series on ANGPTL3 gene [2] (3.0 mg/kg sc days 1 and 29, Normal Diet, Day 36) is 0.548; in the series on ANGPTL3 gene [2] (3.0 mg/kg sc days 1 and 29, Normal Diet, Day 43), 0.348; with ANGPTL3 gene [2] (3.0 mg/kg sc days 1 and 29, Normal Diet, Day 50) it was 0.625; in the series on ANGPTL3 gene [2] (3.0 mg/kg sc days 1 and 29, Normal Diet, Day 57) it was 0.438.

Source of the values: patent publication US12729377B2, “RNAi agents and compositions for inhibiting expression of angiopoietin-like 3 (ANGPTL3), and methods of use” (Arrowhead Pharmaceuticals, Inc., priority 2017, dated 2026).
